Laboratory results from ChEMBL document CHEMBL1140134, “Structure-guided design of N-phenyl tertiary amines as transrepression-selective liver X receptor modulators with anti-inflammatory activity” (J Med Chem, 2008).

Columns and labels:
THP-1 [1] = experiment: Antiinflammatory activity against human THP1 cells assessed as inhibition of LPS-stimulated IL6 production by ELISA relative to N-(4-(1,1,1,3,3,3-hexafluoro-2-hydroxypropan-2-yl)phenyl)-N-(2,2,2-trifluoroethyl)benzenesulfonamide; type: functional
Huh-7 = experiment: Lipogenic activity against human HuH7 cells assessed as triglyceride accumulation at 10 uM after 4 days relative to N-(4-(1,1,1,3,3,3-hexafluoro-2-hydroxypropan-2-yl)phenyl)-N-(2,2,2-trifluoroethyl)benzenesulfonamide; type: functional
THP-1 [2] = experiment: Antiinflammatory activity against human THP1 cells assessed as inhibition of LPS-stimulated IL6 production after 6 hrs by ELISA; type: functional, cell-based; details: THP-1, 6 h
[3] = molecular target: T1, Oxysterols receptor LXR-alpha (Homo sapiens, UniProt Q13133); experiment: Displacement of [N-methyl-3H]GW0438 from human biotinylated LXRalpha ligand binding domain
T1 sequence (Q13133 whole entry): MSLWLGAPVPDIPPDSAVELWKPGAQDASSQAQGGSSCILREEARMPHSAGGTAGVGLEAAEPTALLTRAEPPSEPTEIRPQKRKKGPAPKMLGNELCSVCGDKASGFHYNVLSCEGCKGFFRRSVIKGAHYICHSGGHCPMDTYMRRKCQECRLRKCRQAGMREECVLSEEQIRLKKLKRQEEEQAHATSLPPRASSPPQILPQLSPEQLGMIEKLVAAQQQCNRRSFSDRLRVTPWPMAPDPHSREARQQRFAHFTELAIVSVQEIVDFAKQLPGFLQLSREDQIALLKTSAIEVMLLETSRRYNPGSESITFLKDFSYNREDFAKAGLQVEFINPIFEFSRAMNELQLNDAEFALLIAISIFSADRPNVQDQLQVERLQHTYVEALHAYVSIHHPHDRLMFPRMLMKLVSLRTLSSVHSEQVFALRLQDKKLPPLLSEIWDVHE

[4] = molecular target: T1, Oxysterols receptor LXR-alpha; experiment: Activation of LXRalpha by GAL4 reporter gene assay
[5] = molecular target: T2, Nuclear receptor subfamily 1 group I member 2 (Homo sapiens, UniProt O75469); experiment: Inhibition of human PXR
T2 sequence (O75469 whole entry): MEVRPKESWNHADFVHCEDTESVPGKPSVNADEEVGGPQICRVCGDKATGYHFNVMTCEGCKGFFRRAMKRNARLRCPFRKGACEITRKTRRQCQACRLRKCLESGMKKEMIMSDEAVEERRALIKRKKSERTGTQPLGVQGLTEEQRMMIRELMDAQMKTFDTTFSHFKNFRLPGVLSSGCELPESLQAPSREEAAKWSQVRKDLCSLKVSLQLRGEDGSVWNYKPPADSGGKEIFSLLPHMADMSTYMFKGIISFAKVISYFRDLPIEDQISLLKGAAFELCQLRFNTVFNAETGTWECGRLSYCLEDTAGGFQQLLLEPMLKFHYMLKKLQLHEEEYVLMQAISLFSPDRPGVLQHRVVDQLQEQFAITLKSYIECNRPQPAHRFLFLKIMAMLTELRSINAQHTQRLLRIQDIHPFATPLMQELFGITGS

[6] = Metabolic stability in human HuH7 cells at 1 uM after 24 hrs; type: ADME, cell-based, Huh-7; details: read-out: Stability
[7] = molecular target: Oxysterols receptor LXR-beta (Homo sapiens, UniProt P55055)
Oxysterols receptor LXR-beta, sequence (P55055 whole entry): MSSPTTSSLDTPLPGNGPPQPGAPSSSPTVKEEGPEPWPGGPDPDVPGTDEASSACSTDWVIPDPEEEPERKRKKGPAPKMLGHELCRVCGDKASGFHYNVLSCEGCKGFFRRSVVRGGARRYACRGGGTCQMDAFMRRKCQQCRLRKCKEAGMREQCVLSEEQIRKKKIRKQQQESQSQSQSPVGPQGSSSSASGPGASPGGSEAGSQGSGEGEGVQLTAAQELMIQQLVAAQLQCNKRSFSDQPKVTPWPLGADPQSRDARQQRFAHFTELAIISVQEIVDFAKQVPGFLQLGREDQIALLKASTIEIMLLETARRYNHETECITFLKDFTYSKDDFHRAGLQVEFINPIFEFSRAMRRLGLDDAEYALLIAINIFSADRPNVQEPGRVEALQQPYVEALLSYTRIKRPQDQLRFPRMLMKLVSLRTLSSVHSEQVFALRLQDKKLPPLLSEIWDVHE

SMILES | Activity (THP-1 [1]) | Activity (Huh-7) | IC50 (THP-1 [2]) [µM] | IC50 [3] [µM] | EC50 [4] [µM] | EC50 [5] [µM] | remaining at 24 h, 1 µM [6] [%] | IC50 [7] [µM]
CCCCN(Cc1cc(Cl)c(OC)c(OC)c1)c1ccc(C(O)(C(F)(F)F)C(F)(F)F)cc1 | 1 | 0.4 | 0.015 | 0.165 |  |  |  | 
CCCCN(Cc1ccccc1O)c1ccc(C(O)(C(F)(F)F)C(F)(F)F)cc1 | 1 | 0.6 | 0.035 | 0.18 |  |  |  | 
CCCCN(Cc1cc(Cl)c(O)c(Cl)c1)c1ccc(C(O)(C(F)(F)F)C(F)(F)F)cc1 | 1 | <0.1 | 0.015 | 0.18 | 3 | 0.25 | 40 | 
O=S(=O)(c1ccccc1)N(CC(F)(F)F)c1ccc(C(O)(C(F)(F)F)C(F)(F)F)cc1 [T091317] | 1 | 1 | 0.1 |  |  |  | 65 | 
O=C(O)Cc1cccc(OCCCN(Cc2cccc(C(F)(F)F)c2Cl)CC(c2ccccc2)c2ccccc2)c1 | 1 | 1 | 0.02 | 0.235 |  |  |  | 0.03
CCCCN(Cc1cc(Cl)cc(Cl)c1O)c1ccc(C(O)(C(F)(F)F)C(F)(F)F)cc1 | <0.5 |  | 1.29 | 0.89 |  |  |  | 
CCCCN(Cc1ccccn1)c1ccc(C(O)(C(F)(F)F)C(F)(F)F)cc1 | 1 | 1.1 | 0.02 | 0.12 |  |  |  | 
CCCCN(Cc1cc(Cl)c(O)c(OC)c1)c1ccc(C(O)(C(F)(F)F)C(F)(F)F)cc1 | 1 | <0.2 | 0.01 | 0.775 |  |  |  | 
CCCCN(Cc1cc(OC(F)(F)F)ccc1O)c1ccc(C(O)(C(F)(F)F)C(F)(F)F)cc1 |  | 1 |  | 0.19 |  |  |  | 
CCCCN(Cc1ccncc1)c1ccc(C(O)(C(F)(F)F)C(F)(F)F)cc1 | 1 | 1.1 | 0.02 | 0.09 |  |  |  | 
CCCCN(Cc1ccc(O)cc1)c1ccc(C(O)(C(F)(F)F)C(F)(F)F)cc1 |  |  |  | 0.955 |  |  |  | 
CCCCN(Cc1cc(Cl)c(OC)c(Cl)c1)c1ccc(C(O)(C(F)(F)F)C(F)(F)F)cc1 | 1 | 0.8 | 0.015 | 0.17 |  |  |  | 
CCCCN(Cc1ccccc1)c1ccc(C(O)(C(F)(F)F)C(F)(F)F)cc1 | 1 | 0.8 | 0.025 | 0.17 |  |  |  | 
CCCCN(Cc1cccc(O)c1)c1ccc(C(O)(C(F)(F)F)C(F)(F)F)cc1 | 1 | 0.5 | 0.035 | 0.16 |  |  |  | 
CCCCN(Cc1cc(Cl)cc(Cl)c1)c1ccc(C(O)(C(F)(F)F)C(F)(F)F)cc1 | 1 | 0.7 | 0.01 | 0.195 |  |  |  | 
CCCCN(Cc1cccc(F)c1O)c1ccc(C(O)(C(F)(F)F)C(F)(F)F)cc1 | 1 | 1.9 | 0.06 | 0.615 |  |  |  | 
CN(Cc1ccccc1)c1ccc(C(O)(C(F)(F)F)C(F)(F)F)cc1 |  | >0.5 |  | 0.31 |  |  |  | 
CCCCN(Cc1cccc(OCCO)c1)c1ccc(C(O)(C(F)(F)F)C(F)(F)F)cc1 | 1 | 1.8 | 0.005 | 0.115 |  |  |  | 
CCCCN(Cc1ccc(O)c(Cl)c1)c1ccc(C(O)(C(F)(F)F)C(F)(F)F)cc1 | 1 | 0.6 | 0.025 | 0.56 |  |  |  | 
CCCCN(Cc1cc(Cl)ccc1O)c1ccc(C(O)(C(F)(F)F)C(F)(F)F)cc1 | 1 | 1 | 0.055 | 0.22 |  |  |  | 
OC(c1ccc(N(Cc2ccccc2)Cc2ccccc2)cc1)(C(F)(F)F)C(F)(F)F |  | >0.5 |  | 0.315 |  |  |  | 
